In US11053204B2, “Pyrimidinyloxy benzene derivatives as herbicides” (FMC Corporation, priority 2015, dated 2021):

What was measured:
Type in all cases: in vivo
[1] = tested on: Italian ryegrass (Lolium multiflorum); experiment: Test A preemergence, visual injury rating
Outline: (§1)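 Visual 0–100 rating (100 = complete control) taken about 10 d post-treatment relative to untreated checks. Preemergence: directed soil spray on sown loam/sand pots. Postemergence: seedlings 2–10 cm, 1–2 leaf. Non-phytotoxic solvent formulation with surfactant.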

[2] = tested on: barnyardgrass (Echinochloa crus-galli); experiment: Test A preemergence, visual injury rating
Outline: as §1

[3] = tested on: giant foxtail (Setaria faberii); experiment: Test A preemergence, visual injury rating
Outline: as §1

kochia (Kochia scoparia) = experiment: Test A preemergence, visual injury rating
Outline: as §1

[4] = tested on: pigweed (Amaranthus retroflexus); experiment: Test A preemergence, visual injury rating
Outline: as §1

[5] = tested on: ragweed (common ragweed, Ambrosia elatior); experiment: Test A preemergence, visual injury rating
Outline: as §1

[6] = tested on: blackgrass (Alopecurus myosuroides); experiment: Test C postemergence, plant response rating; details: for Plant response rating, Blackgrass: scale 0 to 100; for Blackgrass plant response rating: scale 0 to 100 (0 no effect, 100 complete control)
Source text: (§2) Seeds of plant species selected from blackgrass (Alopecurus myosuroides), ryegrass, Italian (Italian ryegrass, Lolium multiflorum), wheat (winter wheat, Triticum aestivum), galium (catchweed bedstraw, Galium aparine), corn (Zea mays), crabgrass, large (large crabgrass, Digitaria sanguinalis), foxtail, giant (giant foxtail, Setaria faberii), johnsongrass (Sorghum halepense), lambsquarters (Chenopodium album), morningglory (Ipomoea coccinea), nutsedge, yellow (yellow nutsedge, Cyperus esculentus), pigweed (Amaranthus retroflexus), ragweed (common ragweed, Ambrosia elatior), soybean (Glycine max), barnyardgrass (Echinochloa crus-galli), oilseed rape (Brassica napus), pigweed, palmer (palmer pigweed, Amaranthus palmeri), waterhemp (common waterhemp, Amaranthus rudis), velvetleaf (Abutilon theophrasti), kochia (Kochia scoparia), surinam grass (Brachiaria decumbens), nightshade (eastern black nightshade, Solanum ptycanthum), wild poinsettia (Euphorbia heterophylla), windgrass (Apera spica-venti), and oat, wild (wild oat Avena fatua), were planted into a blend of loam soil and sand or a silt loam soil and treated preemergence with test chemicals formulated in a non-phytotoxic solvent mixture which included a surfactant.
(§3) At the same time, plants selected from these crop and weed species and also chickweed (common chickweed, Stellaria media), buckwheat, wild (wild buckwheat, Polygonum convolvulus), wild mustard (Sinapis arvensis), field poppy (Papaver rhoeas), field violet (Viola arvensis), geranium, cutleaf (cutleaf geranium, Geranium dissectum), Canada thistle (Cirsium arvense), and speedwell (bird's-eye speedwell, Veronica persica), were planted in pots containing Sunshine Redi-Earth® planting medium comprising spaghnum peat moss, vermiculite, starter nutrients and dolomitic limestone and treated with postemergence applications of test chemicals formulated in the same manner. Plants ranged in height from 2 to 18 cm (1- to 4-leaf stage) for postemergence treatments. Treated plants and controls were maintained in a greenhouse for 13 to 15 d, after which time all species were compared to controls and visually evaluated. Plant response ratings, summarized in Table C, are based on a scale of 0 to 100 where 0 is no effect and 100 is complete control. A dash (-) response means no test result.

[7] = tested on: chickweed (common chickweed, Stellaria media); experiment: Test C postemergence, plant response rating; details: for Chickweed plant response rating: scale 0 to 100 (0 no effect, 100 complete control)
Source text: as §2, §3

corn (Zea mays) = experiment: Test C postemergence, plant response rating; details: for Corn plant response rating: scale 0 to 100 (0 no effect, 100 complete control)
Source text: as §2, §3

[8] = tested on: crabgrass, large (large crabgrass, Digitaria sanguinalis); experiment: Test C postemergence, plant response rating; details: for Crabgrass, Large plant response rating: scale 0 to 100 (0 no effect, 100 complete control)
Source text: as §2, §3

[9] = tested on: foxtail, giant (giant foxtail, Setaria faberii); experiment: Test C postemergence, plant response rating; details: for Foxtail, Giant plant response rating: scale 0 to 100 (0 no effect, 100 complete control)
Source text: as §2, §3

[10] = tested on: galium (catchweed bedstraw, Galium aparine); experiment: Test C postemergence, plant response rating; details: for Galium plant response rating: scale 0 to 100 (0 no effect, 100 complete control)
Source text: as §2, §3

[11] = tested on: lambsquarters (Chenopodium album); experiment: Test C postemergence, plant response rating; details: for Lambsquarters plant response rating: scale 0 to 100 (0 no effect, 100 complete control)
Source text: as §2, §3

[12] = tested on: nutsedge, yellow (yellow nutsedge, Cyperus esculentus); experiment: Test C postemergence, plant response rating; details: for Nutsedge, Yellow plant response rating: scale 0 to 100 (0 no effect, 100 complete control)
Source text: as §2, §3

[13] = tested on: oat, wild (wild oat Avena fatua); experiment: Test C postemergence, plant response rating; details: for Oat, Wild plant response rating: scale 0 to 100 (0 no effect, 100 complete control)
Source text: as §2, §3

[14] = tested on: ryegrass, Italian (Italian ryegrass, Lolium multiflorum); experiment: Test C postemergence, plant response rating; details: for Ryegrass, Italian plant response rating: scale 0 to 100 (0 no effect, 100 complete control)
Source text: as §2, §3

soybean (Glycine max) = experiment: Test C postemergence, plant response rating; details: for Soybean plant response rating: scale 0 to 100 (0 no effect, 100 complete control)
Source text: as §2, §3

[15] = tested on: wheat (winter wheat, Triticum aestivum); experiment: Test C postemergence, plant response rating
Source text: as §2, §3

[16] = 31 g ai/ha, 0 to 100 scale, 0 no effect, 100 complete control
[17] = 125 g ai/ha, 0 to 100 scale (0 no effect, 100 complete control)

FC(F)(F)CCCCc1c(Cl)cccc1Oc1ncc(Cl)cn1 [Compound 137]
45: Soybean plant response rating (soybean (Glycine max); 62 g ai/ha)
0: Plant response rating, Ryegrass, Italian [1, 16] | Plant response rating, Barnyardgrass [2, 16] | Plant response rating, Kochia (kochia (Kochia scoparia); [16]) | Plant response rating, Ragweed [5, 16] | Plant response rating, Ragweed [5, 17] | Plant response rating, Nutsedge, Yellow ([12]; 16 g ai/ha, scale of 0 to 100) | Plant response rating, Nutsedge, Yellow ([12]; 31 g ai/ha, scale 0 to 100)
35: Foxtail, Giant plant response rating ([9]; 125 g ai/ha)
10: Plant response rating, Pigweed [4, 16] | Plant response rating, Blackgrass ([6]; 31 g ai/ha) | Plant response rating, Corn (corn (Zea mays); 16 g ai/ha, scale of 0 to 100) | Plant response rating, Crabgrass, Large ([8]; 16 g ai/ha, scale of 0 to 100) | Nutsedge, Yellow plant response rating ([12]; 62 g ai/ha) | Plant response rating, Oat, Wild ([13]; 31 g ai/ha, scale 0 to 100) | Oat, Wild plant response rating ([13]; 62 g ai/ha) | Oat, Wild plant response rating ([13]; 125 g ai/ha) | Ryegrass, Italian plant response rating ([14]; 125 g ai/ha)
85: Galium plant response rating ([10]; 125 g ai/ha) | Lambsquarters plant response rating ([11]; 62 g ai/ha)
90: Plant response rating, Barnyardgrass [2, 17] | Chickweed plant response rating ([7]; 62 g ai/ha) | Lambsquarters plant response rating ([11]; 125 g ai/ha)
55: Plant response rating, Chickweed ([7]; 31 g ai/ha, scale 0 to 100) | Plant response rating, Galium ([10]; 16 g ai/ha, scale of 0 to 100) | Plant response rating, Lambsquarters ([11]; 16 g ai/ha, scale of 0 to 100)
40: Blackgrass plant response rating ([6]; 125 g ai/ha) | Crabgrass, Large plant response rating ([8]; 62 g ai/ha) | Foxtail, Giant plant response rating ([9]; 62 g ai/ha) | Soybean plant response rating (soybean (Glycine max); 125 g ai/ha)
30: Plant response rating, Soybean (soybean (Glycine max); 31 g ai/ha, scale 0 to 100)
25: Corn plant response rating (corn (Zea mays); 125 g ai/ha)
75: Galium plant response rating ([10]; 62 g ai/ha) | Plant response rating, Lambsquarters ([11]; 31 g ai/ha, scale 0 to 100)
5: Plant response rating, Blackgrass ([6]; 16 g ai/ha) | Nutsedge, Yellow plant response rating ([12]; 125 g ai/ha) | Plant response rating, Oat, Wild ([13]; 16 g ai/ha, scale of 0 to 100) | Plant response rating, Ryegrass, Italian ([14]; 16 g ai/ha, scale of 0 to 100) | Plant response rating, Ryegrass, Italian ([14]; 31 g ai/ha, scale 0 to 100) | Ryegrass, Italian plant response rating ([14]; 62 g ai/ha) | Plant response rating, Wheat ([15]; 16 g ai/ha, scale of 0 to 100) | Plant response rating, Wheat ([15]; 31 g ai/ha, scale 0 to 100)
100: Plant response rating, Foxtail, Giant [3, 17] | Plant response rating, Pigweed [4, 17] | Chickweed plant response rating ([7]; 125 g ai/ha)
70: Plant response rating, Foxtail, Giant [3, 16] | Plant response rating, Kochia (kochia (Kochia scoparia); [17]) | Plant response rating, Chickweed ([7]; 16 g ai/ha, scale of 0 to 100) | Crabgrass, Large plant response rating ([8]; 125 g ai/ha) | Plant response rating, Galium ([10]; 31 g ai/ha, scale 0 to 100)
20: Plant response rating, Ryegrass, Italian [1, 17] | Plant response rating, Crabgrass, Large ([8]; 31 g ai/ha, scale 0 to 100) | Plant response rating, Foxtail, Giant ([9]; 16 g ai/ha, scale of 0 to 100) | Plant response rating, Foxtail, Giant ([9]; 31 g ai/ha, scale 0 to 100) | Plant response rating, Soybean (soybean (Glycine max); 16 g ai/ha, scale of 0 to 100) | Wheat plant response rating ([15]; 125 g ai/ha, scale 0 to 100 (0 no effect, 100 complete control))
15: Blackgrass plant response rating ([6]; 62 g ai/ha) | Plant response rating, Corn (corn (Zea mays); 31 g ai/ha, scale 0 to 100) | Corn plant response rating (corn (Zea mays); 62 g ai/ha)
